Data reported in patent publication US20260199499A1, “ANTI-PDL1 ANTIBODY-DRUG CONJUGATE AND USE” (SHANGHAI HENLIUS BIOTECH, INC., priority 2023, published 2026).

How the values were obtained:
[1] = tested on: human PDL1-positive cervical cancer LD1-0010-200614 PDX; test: Anti-tumor effect, LD1-0010-200614 PDX xenograft; type: in vivo, Balb/c nude mice; details: free loaded drug, dose not given, day 35
Description: (§1) A human-derived PDL1-positive cervical cancer LD1-0010-200614 model was revived in Balb/c nude mice. Once the tumor had grown to 500-800 mm^3, the tumor tissue was surgically aseptically excised, and non-tumor tissues and necrotic tissues were removed. The tumor tissue was stripped and evenly cut into tissue blocks (about 25-35 mg) of about 3 mm×3 mm×3 mm in size, and then, which were inoculated subcutaneously on the right side of Balb/c nude mice. Once the average tumor volume of the mice for grouping reached 146.74 mm3, the mice were grouped randomly according to the size of the tumor volume, ensuring similar tumor volumes between groups. The day of grouping was defined as day 0. After the start of dosing, the body weight and tumor size of the mice were measured twice a week, and the mice were dosed once a week, for three doses. Clinical symptoms observed during the experiment were recorded. The tumor volume was calculated according to the following formula: tumor volume (mm3)=½×(a×b2) (wherein a represented the long diameter, and b represented the short diameter).

[2] = tested on: human PDL1-positive gastric cancer LD1-0017-200636 PDX; test: Anti-tumor effect, LD1-0017-200636 PDX xenograft; type: in vivo, NU/NU mice; details: free loaded drug, dose not given, day 21
Description: as §1, with “gastric” for “cervical”, “LD1-0017-200636” for “LD1-0010-200614”, “NU/NU” for “Balb/c nude”, “30-60” for “25-35”, “138.70” for “146.74”

[3] = tested on: human PDL1-positive colorectal cancer LD1-2013-362125 PDX; test: Anti-tumor effect, LD1-2013-362125 PDX xenograft; type: in vivo, NU/NU mice; details: free loaded drug, dose not given, day 31
Description: as §1, with “colorectal” for “cervical”, “LD1-2013-362125” for “LD1-0010-200614”, “NU/NU” for “Balb/c nude”, “156.99” for “146.74”

human dendritic cells = type: cell-based
Description: (§2) Since some human immune cells such as antigen-presenting cells (macrophages, dendritic cells, etc.) express PDL1, the immunotoxicity of PDL1-targeted antibody-conjugated drugs is an inevitable problem. Human dendritic cells and macrophages, after induced differentiation, were digested and viable cells were counted using Vi-Cell XR cytometer. The cell suspension was adjusted to an appropriate concentration with a culture medium. 80 μl/well of the cell suspension was added to a cell culture plate, which was supplemented with 500 IU/mL of IFN-γ. The test drug was diluted with a gradient (5-fold dilutions). 20 μl of each of the diluted test articles was taken and added to the cell suspension in the cell culture plate, and the cell culture plate was placed in an incubator and cultured for 96 hours. 50 μl/well of a CellTiter-Glo solution (purchased from Promega) that had been thawed in advance and equilibrated to room temperature was added according to CellTiter-Glo operation instructions. The wells were mixed uniformly with a microwell plate shaker for 2 minutes and maintained at room temperature for 10 minutes. The […] signal was measured using Envision 2104 plate reader. SGN-PDL1V was used as one of the control molecules and was disclosed in U.S. Patent No. US 20210101982 A1.

human macrophages = type: cell-based
Description: as §2

[4] = tested on: human non-small cell lung cancer LU6437 PDX; test: Anti-tumor effect, LU6437 PDX xenograft; type: in vivo, BALB/c nude mice; details: 3 mg/kg, once a week for three doses, day 21
Description: A revived tumor tissue was harvested from HuPrime® lung cancer xenograft model LU6437 tumor-bearing mice and cut into tumor blocks with a diameter of 2-3 mm, which were inoculated subcutaneously at the right anterior scapula of BALB/c nude mice. […] The average volume was 253.70 mm^3 in the actual groups. The day of grouping was defined as day 0. After the start of dosing, the mice were dosed once a week, for three doses, and the body weight and tumor size of the mice were measured twice a week. Clinical symptoms observed during the experiment were recorded. The tumor volume was calculated according to the following formula: tumor volume (mm3)=½×(a×b2) (wherein a represented the long diameter, and b represented the short diameter).

[5] = Preliminary pre-experiment, toxicity to mice; type: in vivo; details: dose of 8 mg/kg
Excerpt: For ethical considerations, the […] was not set in the experimental design.

[6] = molecular target: T1, PDL1 on PDL1-positive cells NCI-H292 and NCI-H441 (UniProt Q9NZQ7 19-290, limits assumed); test: flow cytometry on NCI-H292 cells, goat anti-human IgG detection
T1 construct: whole, on cells; Human tumor cell lines; also called CD274; B7-H1
T1 sequence (Q9NZQ7 19-290 limits assumed): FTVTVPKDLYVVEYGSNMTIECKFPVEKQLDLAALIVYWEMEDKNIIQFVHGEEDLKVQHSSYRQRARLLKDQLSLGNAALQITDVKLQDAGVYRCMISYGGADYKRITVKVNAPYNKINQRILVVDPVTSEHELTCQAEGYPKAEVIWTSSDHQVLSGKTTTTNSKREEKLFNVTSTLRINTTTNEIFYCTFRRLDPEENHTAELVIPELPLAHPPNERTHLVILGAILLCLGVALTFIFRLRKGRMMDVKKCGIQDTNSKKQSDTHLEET

`CC[C@@]1(O)C(=O)OCc2c1cc1n(c2=O)Cc2c-1nc1cc3c(cc1c2CCCO)OCO3` [A1.3, (S)-7-ethyl-7-hydroxy-14-(3-hydroxypropyl)-10,13-dihydro-11H-[1,3]dioxolo[4,5-g]pyrano[3′,4′,6,7]indolizino[1,2-b]quinoline-8,11(7H)-dione] showed a TGI [1] of 56.5%, a TGI [2] of 34.12% and a TGI [3] of 37.16%.

For “SGN-PDL1V: reference ADC of WO 2021067776 A1: SGN-PDL1V antibody moiety conjugated to MC-VC-PABC-MMAE [reference compound]”, the “concentration at which non-specific killing resulted” value (human dendritic cells) was “above 20 nM”, the “concentration at which non-specific killing resulted” value (human macrophages) was “above 20 nM” and the TGI [4] was 24.11%. For the same molecule, the toxicity to mice [5] was “severely lethal toxicity”.

B1: MAB20 (antibody, human IgG1, lambda, N297A, V domains shown)
VH: EVQLVQSGGGLVKPGGSLRLSCAASGFTFSSYTMNWVRQAPGKGLEWVSSISSGSDYLYYADSVKGRFTISRDNAKNSLYLQMNSLRAEDTAVYYCARNELRWYPQAGAFDRWGQGTMVTVSS
VL: QSVVTQPPSMSAAPGQRVTISCSGSSSYIESSYVGWYQQLPGTAPRLLIYDDDMRPSGIPDRFSGSKSGTSATLAITGLQTGDEADYYCEIWRSGLGGVFGGGTKLTVLS
notes: also called anti-PDL1 antibody MAB20; Anti-PDL1_mAb
B1: binds [6].
